We go through 80 molecules from PubChem BioAssay AID1576 (EPA DSSTox, 2009).

The source made the active and inactive calls.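 The calls were made as follows: active = chemicals shown by follow-up kinetic tests to compete for rat estrogen receptor sites, with a measured inhibition constant; inconclusive = some binding seen but constant unmeasurable owing to poor solubility; inactive = no binding up to top dose, or binding unconfirmed.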

The target of the first data set is Estrogen receptor (Rattus norvegicus) (UniProt P06211). Description: DSSTox (KIERBL) EPA Estrogen Receptor Ki Binding Study (Laws et al.) Database. Conditions: Rat uterine cytosol ER, 3H-estradiol competitive binding. Here is the method: This study was conducted by EPA researchers to evaluate the validity of the rat uterine cytosolic (RUC) estrogen receptor (ER) competitive binding assay for use in the Endocrine Disruption Screening Program (EDSP). The assay measures the ability of radiolabeled 17-beta-estradiol (3H-E2) to bind with RUC ER in the presence of increasing concentrations of a test chemical. The goal is to employ this in vitro assay as a 1st tier screening tool for assessing the potential of structurally diverse environmental chemicals to bind to the ER, as well as to support research efforts to develop computational models to predict ER binding. A distinguishing feature of the present study was the use of secondary experimental analysis of binding curves and determination of Ki values to confirm that measured IC50 values corresponded to true positive results. The study concluded that a number of experimental conditions can confound interpretation of IC50 values obtained from the RUC ER-binding assay data and lead to false positive results. In particular, some chemical treatments likely alter the stability of the assay by changing the buffer pH, denaturing ER, or disrupting the ER binding kinetics. […] The chemicals used in this study were selected as part of a validation test for two Quantitative Structure-Activity Relationship (QSAR) models designed to predict ER binding [Fed. Reg. 67(250), 79618, Dec. 30, 2002]. Several hundred chemicals were initially screened, including approximately 100 chemicals selected from among the High Production Volume (HPV) chemicals included in EPA's Toxic Substances Control Act (TSCA) inventory that were predicted to be positive for ER binding, with the rest selected at random from the TSCA inventory. All chemicals were initially tested in ER competitive binding assays by Battelle Pacific Northwest Laboratories, Richland, Washington [EPA Contract Number 68-W-99-033, Task 6]. Approximately 50 chemicals produced binding curves that: (1) strongly implied competitive inhibition of ER binding, or (2) produced partial curves or irregular (non-sigmoid) binding curves. These chemicals were further evaluated in an ER competitive binding assay with secondary analysis to confirm true competitive inhibition and to determine an experimental Ki [U.S. EPA Contract 3D-5967-NTEX]. The results of RUC ER screening for these 50 structurally diverse chemicals, for which secondary confirmatory analyses were performed, were published in the Main Citation (Laws et al., 2006, Tox. Sci. 94:46-56). The remaining 228 chemicals were designated as non-binders based on initial screening studies.
Sequence of Estrogen receptor (Rattus norvegicus) (P06211 whole entry, looked up): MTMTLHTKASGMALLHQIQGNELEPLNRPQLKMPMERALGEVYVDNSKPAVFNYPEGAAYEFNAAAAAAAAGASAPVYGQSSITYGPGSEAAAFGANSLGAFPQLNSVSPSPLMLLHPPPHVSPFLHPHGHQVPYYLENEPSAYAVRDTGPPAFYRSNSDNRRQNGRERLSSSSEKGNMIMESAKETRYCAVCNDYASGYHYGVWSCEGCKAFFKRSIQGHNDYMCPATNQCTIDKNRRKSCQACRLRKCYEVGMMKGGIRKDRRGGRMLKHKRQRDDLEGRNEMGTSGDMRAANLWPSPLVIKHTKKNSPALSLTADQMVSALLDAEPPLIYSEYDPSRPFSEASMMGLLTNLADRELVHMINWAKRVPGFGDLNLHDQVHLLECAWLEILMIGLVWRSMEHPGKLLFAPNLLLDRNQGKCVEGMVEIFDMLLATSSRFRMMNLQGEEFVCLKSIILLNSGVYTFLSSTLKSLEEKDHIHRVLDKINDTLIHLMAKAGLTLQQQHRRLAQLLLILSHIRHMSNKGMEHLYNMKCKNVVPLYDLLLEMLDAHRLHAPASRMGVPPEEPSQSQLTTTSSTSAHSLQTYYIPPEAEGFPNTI
The DSSTox KIERBL data files include all published IC50 and Ki experimental results for the 50 chemicals included in the Main Citation (Laws et al., 2006) (denoted Group 1), as well as previously unpublished results for an additional 228 structually diverse TSCA chemicals for which no ER binding was observed (denoted Group 2. IC50 values were determined for 32 compounds in Group 1 as the concentration of a test chemical that inhibits the maximal specific binding of 0.33 nM radiolabeled (3H) 17-beta-estradiol (E2) to rat uterine cytosolic (RUC) estrogen receptor (ER) by 50%. Confirmation of binding status was accomplished by secondary analysis using Lineweaver-Burk plots and slope replots to determine true competitive inhibition and an experimental Ki value. Ki is the inhibition constant for the test chemical, i.e., the concentration of the test chemical that will bind to half the binding sites at equilibrium (displacing half of the probe-bound receptors), in the absence of radioligand or other competitors. Ki reported as Mean +/- Standard Error from n=2 experiments (see StandardError_Ki_n2) and is determined from Lineweaver-Burk plots over the tested dose range (TestedRange_microM). For more information see BindingCurve_Group and BindingCurve_Details. […]
`CCSC(=O)N(CC)C1CCCCC1`: the outcome was “inactive; none”.
For `Cc1cc(O)c(C(C)(C)C)cc1C(C)CC(c1cc(C(C)(C)C)c(O)cc1C)c1cc(C(C)(C)C)c(O)cc1C` (stereo not given), the outcome is “inactive; none”.
Still for that read-out and setting: the entry for `O=C(O)CCCCC(=O)O` is “inactive; none”; for `COCCOC(=O)CC#N` it is “inactive; none”.
Same read-out and setting: the entry for `C=CC(=O)OCCC(F)(F)C(F)(F)C(F)(F)C(F)(F)C(F)(F)C(F)(F)C(F)(F)C(F)(F)C(F)(F)C(F)(F)F` is “inactive; incomplete”.
On the same count and under the same terms, the entry for `O=Cc1ccc(F)cc1` is “inactive; none”.
For `OCC1CC2C=CC1C2` (stereo not given), the outcome was “inactive; none”.
The same measure, in the same setting: for `COC(=O)CCCCC(=O)OC` the value was “inactive; none”; for `CCCCCCC(=O)O`, “inactive; none”.
Still for that read-out and setting: the entry for `Cc1cc(C(C)(C)C)c(O)c(C)c1Cn1c(=O)n(Cc2c(C)cc(C(C)(C)C)c(O)c2C)c(=O)n(Cc2c(C)cc(C(C)(C)C)c(O)c2C)c1=O` is “inactive; none”.
Still for that read-out and setting: for `CCCCCN(CCCCC)CCCCC` the value was “inactive; none”; for `CCCCCCCCCCCCCC(=O)OCCCC`, “inactive; none”; for `CC(C)C(=O)C(C)C`, “inactive; none”.
For the molecule `O=C(O)C1CCC(C(=O)O)CC1` (stereo not given), the outcome is “inactive; none”.
On the same count and under the same terms, for `CCOc1ccc(NC(C)=O)cc1` the value was “inactive; none”.
On the same count and under the same terms, the entry for `CC/C=C\CCOC(=O)c1ccccc1O` is “inactive; incomplete”; for `NC(=O)c1ccc(N)cc1` it is “inactive; none”.
Same read-out and setting: the entry for `O=NN(c1ccccc1)c1ccccc1` is “inactive; none”; for `C=C[Si](C)(C)O[Si](C)(C)C=C` it is “inactive; none”.
`CCCCCCCCCCCCCCCCCCOC(=O)CCc1cc(C(C)(C)C)c(O)c(C(C)(C)C)c1`: the outcome was “inactive; none”.
Same read-out and setting: for `NNC(=O)NN` the value was “inactive; none”.
Take `O=C(O)c1ccccc1Br`: the outcome was “inactive; none”.
Same read-out and setting: for `C=CC(=O)OCCC(C)OC(=O)C=C` (stereo not given) the value was “inactive; none”.
The same measure, in the same setting: for `C=CC(=O)OCC(C)C` the value was “inactive; none”; for `CCCCCCCCCCCCOCCOCCO`, “inactive; none”; for `C=C(C)c1ccc(C(=C)C)cc1`, “inactive; none”.
Still for that read-out and setting: the entry for `ClC(Cl)C(Cl)Cl` is “inactive; none”.
As to `CC1(C)C(C=C(Cl)Cl)C1C(=O)OC(C#N)c1cccc(Oc2ccccc2)c1` (stereo not given), the outcome was “inactive; none”.
For `O=C(Cl)c1ccccc1C(=O)Cl`, the outcome was “inactive; none”.
For `CC(C)COC(=O)CC(C(=O)OCC(C)C)S(=O)(=O)O` (stereo not given), the outcome was “inactive; none”.
Same read-out and setting: the entry for `O=C(Oc1ccccc1)c1ccccc1O` is “inactive; incomplete”; for `CCCCCCCCCCCCCCBr` it is “inactive; none”.
On the same count and under the same terms, the entry for `O=C1OS(=O)(=O)c2ccccc21` is “inactive; none”; for `CCCCOC(=O)CCC(C)=O` it is “inactive; none”; for `CC1COc2ccccc2N1C(=O)C(Cl)Cl` (stereo not given) it is “inactive; none”.
As to `Cc1cc(C(C)(C)C)cc(C)c1C`, the outcome is “inactive; none”.
Same read-out and setting: for `C(=NC1CCCCC1)=NC1CCCCC1` the value was “inactive; none”.
On the same count and under the same terms, the entry for `COC(=O)c1cccc(C)c1S(=O)(=O)NC(=O)Nc1nc(OCC(F)(F)F)nc(N(C)C)n1` is “inactive; none”; for `c1ccc(CNc2ncnc3c2ncn3C2CCCCO2)cc1` (stereo not given) it is “inactive; none”; for `CC(=O)CC(=O)N(C)C` it is “inactive; none”.
On the same count and under the same terms, the entry for `CCCCCCCCOc1ccc(C(=O)c2ccccc2)c(O)c1` is “inactive; none”.
Consider `O=C(Oc1ccccc1)c1ccc2ccccc2c1O`, for which the outcome was “inactive; none”.
On the same count and under the same terms, for `CC1=CC(=C(c2ccc(N)cc2)c2ccc(N)cc2)C=CC1=N` the value was “inactive; none”; for `CCCCCCCC=O`, “inactive; irregular”.
The same measure, in the same setting: for `O=C(O)CC(O)(CC(=O)O)C(=O)O` the value was “inactive; none”.
For `CCOC(=O)CCC(=O)OCC`, the outcome is “inactive; none”.
As for `Nc1ccc(F)c(Cl)c1`, the outcome is “inactive; none”.
Take `CC(O)C(=O)O` (stereo not given): the outcome was “inactive; none”.
Same read-out and setting: the entry for `O=C(O[C@@H](C(=O)O)[C@@H](OC(=O)c1ccccc1)C(=O)O)c1ccccc1` is “inactive; none”.
Still for that read-out and setting: the entry for `CCSC(C)CC1CC(=O)C(/C(CC)=N/OC/C=C/Cl)=C(O)C1` (stereo not given) is “inactive; none”; for `O=C(Oc1cccc(O)c1)c1ccccc1` it is “inactive; none”; for `CCc1ccc(Br)cc1` it is “inactive; incomplete”.
Turning to `CN(C)c1ccc(C(=C2C=CC(=[N+](C)C)C=C2)c2ccc(N(C)C)cc2)cc1`, the outcome is “inactive; none”.
The same measure, in the same setting: for `O=C(Cl)c1ccccc1` the value was “inactive; none”.
On the same count and under the same terms, the entry for `COc1cc(Cl)c(OC)cc1Cl` is “inactive; none”; for `Cc1cccc(C(=O)O)c1O` it is “inactive; none”; for `Cc1ccc2n[nH]nc2c1` it is “inactive; none”.
For the molecule `O=C(O)c1ccccc1COc1ccccc1`, the outcome is “inactive; none”.
On the same count and under the same terms, for `CCC(C)N` (stereo not given) the value was “inactive; none”.
With `Oc1ccc(Sc2ccc(O)cc2O)c(O)c1`, the outcome is “inactive; incomplete”.
Still for that read-out and setting: the entry for `O=C(n1ccnc1)n1ccnc1` is “inactive; none”.
Same read-out and setting: for `CC(C)c1ccc2cc(C(C)C)ccc2c1` the value was “inactive; none”; for `O=C(O)c1cc(O)c2ccccc2c1O`, “inactive; incomplete”.
The same measure, in the same setting: the entry for `CCCCCCCC(=O)OCC(COC(=O)CCCCCCC)OC(=O)CCCCCCC` is “inactive; none”.
As to `N#CCCSCCC#N`, the outcome is “inactive; none”.
On the same count and under the same terms, for `CC(C)CCC(C)Nc1ccc(NC(C)CCC(C)C)cc1` (stereo not given) the value was “inactive; none”.
`ClC1(Cl)C2(Cl)C3(Cl)C4(Cl)C(Cl)(Cl)C5(Cl)C3(Cl)C1(Cl)C5(Cl)C24Cl` (stereo not given): the outcome was “inactive; none”.
Still for that read-out and setting: for `CCCCN(CCCC)C(=S)[S-].CCCCN(CCCC)C(=S)[S-].[Ni+2]` the value was “inactive; none”; for `CC(CO)c1ccccc1` (stereo not given), “inactive; incomplete”; for `Cc1cccc[n+]1[O-]`, “inactive; none”.
Consider `CCOC(=O)C(CC)C(=O)OCC`, for which the outcome is “inactive; none”.
Same read-out and setting: for `CCN=C1C=CC(=C(c2ccc(N(CC)CC)cc2)c2ccc(N(CC)CC)cc2)c2ccccc21` the value was “inactive; none”; for `Nc1c(N=Nc2ccc([N+](=O)[O-])cc2)c(S(=O)(=O)O)cc2cc(S(=O)(=O)O)c(N=Nc3ccccc3)c(O)c12`, “inactive; none”.

The same data set, now with this note: Rat uterine cytosol ER, 3H-estradiol competitive binding; TestedRange_microM: 0.5-10.
Take `CCCCCCCCCCCCCCCCCC[N+](C)(C)CCC[Si](OC)(OC)OC`: the outcome is “inactive; irregular”.

The same data set, now with this note: Rat uterine cytosol ER, 3H-estradiol competitive binding; TestedRange_microM: 0.6-1.2.
In the case of `CC(C)CCCCCCc1ccc(O)cc1`, the Potency is 0.6 µM.

Still in this data set, the particulars now being: Rat uterine cytosol ER, 3H-estradiol competitive binding; TestedRange_microM: 2.5-7.5.
As to `Oc1ccc(C(c2ccc(O)cc2)(C(F)(F)F)C(F)(F)F)cc1`, the Potency was 1.9 µM.

Staying with this data set, now noted: Rat uterine cytosol ER, 3H-estradiol competitive binding; TestedRange_microM: 10-100.
As to `COC(OC)(C(=O)c1ccccc1)c1ccccc1`, the Potency was 136 µM.

Still in this data set, the particulars now being: Rat uterine cytosol ER, 3H-estradiol competitive binding; TestedRange_microM: 25-75.
Consider `CC(C)(c1ccc(O)cc1)c1ccc(O)cc1`, for which the Potency is 24.8 µM.
Still for that read-out and setting: for `O=C(OCc1ccccc1)c1ccc(O)cc1` the value was 34.2 µM.

Staying with this data set, now noted: Rat uterine cytosol ER, 3H-estradiol competitive binding; TestedRange_microM: 44-178.
As for `CCCCCCCc1ccc(O)cc1`, the Potency was 177 µM.
